Measured values published in patent US20260258050A1, “IMMUNOMODULATOR” (HITGEN INC., priority 2023, published 2026).

Biological target: T1, Human IL-17A (Homo sapiens, UniProt Q16552)
T1 sequence (Q16552 20-155 limits assumed): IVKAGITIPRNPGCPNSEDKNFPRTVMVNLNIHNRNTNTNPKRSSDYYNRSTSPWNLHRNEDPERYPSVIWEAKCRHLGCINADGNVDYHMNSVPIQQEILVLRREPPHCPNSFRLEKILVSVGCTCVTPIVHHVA
Assay: IL-17A enzyme-linked immunosorbent assay (competitive ELISA, IL-17A/IL-17Ra receptor-ligand binding)
Parameters: purchased Sino Biological Inc. 12047-H07B
Settings: human IL-17A coated plate, human IL-17Ra, read-out: IC50, inhibitory activity of compounds on human IL-17A
Protocol: Experimental Example 1 IL-17A Enzyme-Linked Immunosorbent Assay (ELISA)
The inhibitory effects of human IL-17A inhibitors on receptor-ligand binding were quantitatively determined by a competitive enzyme-linked immunosorbent assay (ELISA). The ELISA was performed through the following steps.
Human IL-17A (Sino Biological Inc., Cat #12047-H07B) was diluted with coating buffer (50 mM phosphate-buffered saline (PBS), pH 7.4) to give an IL-17A concentration of 0.2 μg/ml. 100 μL of the resulting solution was added to each well of a 96-well plate, and the plate was incubated at 37° C. for 30 min. In a blank group, 100 100 μL of the coating buffer was added instead of the IL-17A solution.
The plate was washed four times with 10 mM phosphate-buffered saline containing 0.05% Tween-20 (PBST, pH 7.4). 200 μL of PBST was used per well for each wash. After the final wash, the plate was tapped dry on absorbent paper.
Fresh 5% (w/v) skim milk solution was prepared before the experiment. For example, 5 g of skim milk powder (Bio-Rad, 170-6404) was completely dissolved in 100 mL of 10 mM PBST. 200 μL of the 5% (w/v) skim milk solution was added to each well, and the plate was incubated on a shaker at 25° C. for 30 min.
(S4) Preparation of 100× to-be-Tested Compound Solutions
During step (S3), the to-be-tested compound solutions were prepared, respectively. Each powdered compound was dissolved in dimethyl sulfoxide (DMSO) to reach a storage concentration of 10 mM. The to-be-tested compound solutions were then serially diluted four-fold with DMSO to obtain nine storage concentrations ranging from […].
(S6) Pre-incubation of IL-17A with to-be-tested compound solutions
89 μL of PBST and 1 μL of each of the to-be-tested compound solutions were added to each well and mixed. The plate was pre-incubated at 25° C. for 10 min. In the blank group and the control group, 1 μL of DMSO was added instead of the to-be-tested compound solutions.
(S7) Incubation with Human Interleukin-17 Receptor a (IL-17Ra)
10 μL of 16 nM human IL-17Ra (Sino Biological Inc., Cat #10895-H03H) was added, followed by incubation on a shaker at 25° C. for 30 min. The receptor solution was prepared in 10 mM PBST.
(S9) Incubation with Horseradish Peroxidase-Conjugated Antibody
100 μL of mouse anti-Fc tag horseradish peroxidase (HRP)-conjugated antibody (Sino Biological Inc., Cat #10702-MM01T-H) was added to each well. The plate was incubated on a shaker at 25° C. for 30 min. The antibody was diluted with 5% (w/v) skim milk solution at 1:5,000 (v/v).
100 μL of 3,3′,5,5′-tetramethylbenzidine (TMB) substrate solution (BD, Cat #555214) was added to each well. Substrate A and substrate B were freshly mixed at a volume ratio of 1:1 before use. The plate was incubated in the dark at 25° C. for 5-15 min.
(S12) Termination and Detection
The color reaction was terminated by addition of 2.5 M hydrochloric acid (HCl). Absorbance was measured at 450 nm using a BMG PHERStar microplate reader.
(S13) Calculation of Half-Maximal Inhibitory Concentration (IC50)
The relative percent residual activity at each compound concentration was calculated according to Equation 1. The IC50 value of each test compound was then calculated in GraphPad 6 using the equation for log(inhibitor) versus normalized response with variable slope, as shown in Equation 2.
relative percent residual activity (%)=[(absorbance of sample−absorbance of blank group)/(absorbance of control group−absorbance of blank group)]%. Equation 1: […]
The compounds prepared in the above examples were tested for IL-17A inhibitory activity according to the above method.

SMILES | IC50 [nM]
[2H]C([2H])([2H])n1nccc1C(=O)N[C@H](C(=O)Nc1cc2c(cc1F)-c1c(n[nH]c1C)CCOC2)C(C1CC1)C1CC1 [compound 18] | 50 to 150
CCn1nccc1C(=O)N[C@H](C(=O)Nc1cc2c(cc1Cl)-c1c[nH]nc1CCOC2)C(C1CC1)C1CC1 [compound 30] | 50 to 150
Cn1nccc1C(=O)N[C@H](C(=O)Nc1cc2c(cc1Cl)-c1c[nH]nc1CCOC2)C(C1CC1)C1CC1 [compound 31] | 150 to 1000
Cc1[nH]nc2c1-c1cc(F)c(NC(=O)[C@@H](NC(=O)c3ccnn3[C@@H](C)CO)C3CCCCC3)cc1COCC2 [compound 50] | 50 to 150
Cc1[nH]nc2c1-c1cc(F)c(NC(=O)[C@@H](NC(=O)c3ccnn3[C@H]3CCOC3)C(C3CC3)C3CC3)cc1COCC2 [compound 73] | 50 to 150
Cc1[nH]nc2c1-c1cc(F)c(NC(=O)[C@@H](NC(=O)c3ccnn3C3CCOCC3)C(C3CC3)C3CC3)cc1COCC2 [compound 74] | 50 to 150
Cc1[nH]nc2c1-c1cc(F)c(NC(=O)[C@@H](NC(=O)c3ccnn3CC(C)(C)C#N)C(C3CC3)C3CC3)cc1COCC2 [compound 77] | 50 to 150
Cc1[nH]nc2c1-c1cc(F)c(NC(=O)[C@@H](NC(=O)c3ccnn3C(F)F)C(C3CC3)C3CC3)cc1COCC2 [compound 83] | 50 to 150
Cc1[nH]nc2c1-c1cc(F)c(NC(=O)[C@@H](NC(=O)c3ccnn3CCCN(C)C)C(C3CC3)C3CC3)cc1COCC2 [compound 85] | 50 to 150
Cc1[nH]nc2c1-c1cc(F)c(NC(=O)[C@@H](NC(=O)c3ccnn3CC3(C(F)(F)F)CC3)C(C3CC3)C3CC3)cc1COCC2 [compound 91] | 50 to 150
Cc1[nH]nc2c1-c1cc(F)c(NC(=O)[C@@H](NC(=O)c3ccnn3CCCN3CCN(C)CC3)C(C3CC3)C3CC3)cc1COCC2 [compound 93] | 50 to 150
Cc1[nH]nc2c1-c1cc(F)c(NC(=O)[C@@H](NC(=O)c3ccnc(CC(F)(F)F)c3)C(C3CC3)C3CC3)cc1COCC2 [compound 109] | 50 to 150
COC(=O)N[C@H](C(=O)Nc1cc2c(cc1F)-c1c(n[nH]c1C)CCOC2)C(C1CC1)C1CC1 [compound 121] | 50 to 150
Cc1[nH]nc2c1-c1cc(F)c(NC(=O)[C@@H](NC(=O)C3(F)CC3)C(C3CC3)C3CC3)cc1COCC2 [compound 122] | 50 to 150
Cc1[nH]nc2c1-c1cc(F)c(NC(=O)[C@@H](NC(=O)c3ccnn3C3CC3)C(C3CC3)C3CC3)cc1CN(C)C(=O)C2 [compound 135] | ≤ 50
COCCN1Cc2cc(NC(=O)[C@@H](NC(=O)c3ccnn3[C@@H](C)CO)C(C3CC3)C3CC3)c(F)cc2-c2c(n[nH]c2C)CC1=O [compound 140] | ≤ 50
COCCN1Cc2cc(NC(=O)[C@@H](NC(=O)c3nonc3C)C(C3CC3)C3CC3)c(F)cc2-c2c(n[nH]c2C)CC1=O [compound 141] | ≤ 50
CCn1nccc1C(=O)N[C@H](C(=O)Nc1cc2c(cc1F)-c1c(n[nH]c1C)CCN(C)C2)C(C1CC1)C1CC1 [compound 155] | 50 to 150
Cc1[nH]nc2c1-c1cc(F)c(NC(=O)[C@@H](NC(=O)c3ccnn3C(C)C)C(C3CC3)C3CC3)cc1CN(C1CCC1)CC2 [compound 177] | ≤ 50
Cc1[nH]nc2c1-c1cc(F)c(NC(=O)[C@@H](NC(=O)c3ccnn3C(C)C)C(C3CC3)C3CC3)cc1CN(CC#N)CC2 [compound 179] | ≤ 50
Cc1[nH]nc2c1-c1cnc(NC(=O)[C@@H](NC(=O)c3ccnn3C(C)C)C(C3CC3)C3CC3)cc1CN(C1CC(F)(F)C1)CC2 [compound 203] | ≤ 50
Cc1[nH]nc2c1-c1cnc(NC(=O)[C@@H](NC(=O)c3ccnn3C(C)C)C(C3CC3)C3CC3)cc1CN(C(C)(C)C(F)(F)F)C(=O)C2 [compound 206] | ≤ 50
Cc1[nH]nc2c1-c1cc(F)c(NC(=O)[C@@H](NC(=O)c3ccnn3C(C)C)C(C3CC3)C3CC3)cc1CN(C(C)(C)C(F)(F)F)C(=O)C2 [compound 207] | ≤ 50
Cc1[nH]nc2c1-c1cnc(NC(=O)[C@@H](NC(=O)c3ccnn3C(C)C)C(C3CC3)C3CC3)cc1CN(C1(C(F)(F)F)CC1)C(=O)C2 [compound 208] | ≤ 50
Cc1[nH]nc2c1-c1cc(F)c(NC(=O)[C@@H](NC(=O)c3ccnn3C(C)C)C(C3CC3)C3CC3)cc1CN(C1(C(F)(F)F)CC1)C(=O)C2 [compound 209] | ≤ 50
Cc1[nH]nc2c1-c1cnc(NC(=O)[C@@H](NC(=O)c3ccnn3C(C)C)C(C3CC3)C3CC3)cc1CN(C(C)(C)C(F)(F)F)CC2 [compound 210] | ≤ 50
Cc1[nH]nc2c1-c1cc(F)c(NC(=O)[C@@H](NC(=O)c3ccnn3C(C)C)C(C3CC3)C3CC3)cc1CN(C(C)(C)C(F)(F)F)CC2 [compound 211] | ≤ 50
Cc1[nH]nc2c1-c1cnc(NC(=O)[C@@H](NC(=O)c3ccnn3C(C)C)C(C3CC3)C3CC3)cc1CN(C1(C(F)(F)F)CC1)CC2 [compound 212] | ≤ 50
Cc1[nH]nc2c1-c1cc(F)c(NC(=O)[C@@H](NC(=O)c3ccnn3C(C)C)C(C3CC3)C3CC3)cc1CN(C1(C(F)(F)F)CC1)CC2 [compound 213] | ≤ 50

Results, then the compound that gave them:

IC50 [nM] | SMILES
≤ 50 | Cc1nonc1C(=O)N[C@H](C(=O)Nc1cc2c(cc1F)-c1c(n[nH]c1C)CCOC2)C(C1CC1)C1CC1 [compound 20]
≤ 50 | CCc1nonc1C(=O)N[C@H](C(=O)Nc1cc2c(cc1F)-c1c(n[nH]c1C)CCOC2)C(C1CC1)C1CC1 [compound 21]
≤ 50 | Cc1[nH]nc2c1-c1cc(F)c(NC(=O)[C@@H](NC(=O)c3ccnn3[C@@H](C)CO)[C@H]3CC[C@H](C)CC3)cc1COCC2 [compound 47]
≤ 50 | Cc1[nH]nc2c1-c1ccc(NC(=O)[C@@H](NC(=O)c3ccnn3[C@@H](C)CO)C(C3CC3)C3CC3)cc1COCC2 [compound 51]
≤ 50 | Cc1[nH]nc2c1-c1cc(F)c(NC(=O)[C@@H](NC(=O)c3ccnn3[C@@H](C)CO)C(C3CC3)C3CC3)cc1COCC2 [compound 55]
≤ 50 | Cc1[nH]nc2c1-c1cc(F)c(NC(=O)[C@@H](NC(=O)c3ccnn3CCCO)C(C3CC3)C3CC3)cc1COCC2 [compound 56]
≤ 50 | Cc1[nH]nc2c1-c1cc(F)c(NC(=O)[C@@H](NC(=O)c3ccnn3CCS(C)(=O)=O)C(C3CC3)C3CC3)cc1COCC2 [compound 63]
≤ 50 | Cc1[nH]nc2c1-c1cc(F)c(NC(=O)[C@@H](NC(=O)c3ccnn3C3CCC3)C(C3CC3)C3CC3)cc1COCC2 [compound 72]
≤ 50 | CO[C@@H](C)Cn1nccc1C(=O)N[C@H](C(=O)Nc1cc2c(cc1F)-c1c(n[nH]c1C)CCOC2)C(C1CC1)C1CC1 [compound 78]
≤ 50 | Cc1[nH]nc2c1-c1cc(F)c(NC(=O)[C@@H](NC(=O)c3ccnn3C(CF)CF)C(C3CC3)C3CC3)cc1COCC2 [compound 95]
≤ 50 | Cc1[nH]nc2c1-c1cc(F)c(NC(=O)[C@@H](NC(=O)c3ccnn3CCOC(F)F)C(C3CC3)C3CC3)cc1COCC2 [compound 107]
≤ 50 | Cc1[nH]nc2c1-c1cc(F)c(NC(=O)[C@@H](NC(=O)c3ccnn3C3CSC3)C(C3CC3)C3CC3)cc1COCC2 [compound 112]
≤ 50 | Cc1[nH]nc2c1-c1cnc(NC(=O)[C@@H](NC(=O)c3ccnn3C(C)C)C(C3CC3)C3CC3)c(F)c1COCC2 [compound 128]
≤ 50 | Cc1[nH]nc2c1-c1cc(F)c(NC(=O)[C@@H](NC(=O)c3ccnn3C(C)C)C(C3CC3)C3CC3)cc1C/C=C\C2 [compound 129]
